Test results taken from patent US20120231972A1, “Probe Compound for Detecting and Isolating Enzymes and Means and Methods Using the Same” (priority 2009, published 2012).
Values after ≈ are worked out from the molar mass of the structure shown.

Experiment: physchem
Format: physicochemical
Conditions: water

solubility: ~240 mM (≈ 222 mg/mL)
SMILES: CC[N+]1=C(/C=C/C=C2/N(CCCCCC(=O)N[C@H](Cc3c[nH]cn3)C(=O)O)c3ccc(S(=O)(=O)[O-])cc3C2(C)C)C(C)(C)c2cc(S(=O)(=O)NCCCC(=O)OCCN(C)C)ccc21 [compound (E), Cy3-His-4-amino-3-butyric acid (N,N-dimethylamino) ethylester]
